Reference: paper PMC8634746 (International Journal of Peptide Research and Therapeutics, 2021)
Peptide text beside a SMILES is read from it.

Target: S1-ACE2 complex (Severe acute respiratory syndrome coronavirus 2, UniProt P0DTC2)
Format: binding, human (ACE2); SARS-CoV-2 (S1)
Settings: 5 μM peptide; preincubation 3 to 60 min

Compound: CC(C)C[C@H](NC(=O)[C@H](CC(=O)O)NC(=O)[C@H](CCC(=O)O)NC(=O)[C@H](C)NC(=O)[C@H](CCC(=O)O)NC(=O)[C@H](Cc1c[nH]cn1)NC(=O)[C@H](CC(N)=O)NC(=O)[C@H](Cc1ccccc1)NC(=O)[C@H](CCCCN)NC(=O)[C@H](CC(=O)O)NC(=O)[C@H](CC(C)C)NC(=O)[C@H](Cc1ccccc1)NC(=O)[C@@H](NC(=O)[C@H](CCCCN)NC(=O)[C@H](C)NC(=O)[C@@H](N)CCC(N)=O)[C@@H](C)O)C(=O)N[C@@H](Cc1ccccc1)C(=O)N[C@@H](Cc1ccc(O)cc1)C(=O)N[C@@H](CCC(N)=O)C(N)=O (H-QAKTFLDKFNHEAEDLFYQ-NH2)
- half-life of preincubation-time effect on koff^rel: 14 min
